Test results published in ChEMBL document CHEMBL1201862, “PubChem BioAssay data set” (2004).
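Briefly, cells in 96-well plates were exposed to five compound concentrations for 48 h, and endpoints were estimated by linear interpolation. GI50 = concentration required for 50% inhibition of growth.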 Activity calls are given as the source filed them. No stated cut-off is given here; in the data, active = GI50 up to about 1.1 µM and inactive = higher.

How the values were obtained:
Assay in all cases: NCI tumour cell line growth inhibition, 48 h
[1] = tested on: DLD-1
[2] = tested on: DMS-114
[3] = tested on: LXFL 529
[4] = tested on: SNB-78
[5] = tested on: RXF 631
[6] = tested on: DMS-273
[7] = tested on: KM-20L2
[8] = tested on: HOP-18

O=c1[nH]c2cc(-c3ccccc3)nc-2nn1-c1c(Cl)cc(Cl)cc1Cl was tested, and the GI50 [1] was 37.5 µM (inactive), the GI50 [2] was > 100 µM (inactive) and the GI50 [3] was 30.5 µM (inactive). The GI50 [4] was 37.5 µM (inactive), the GI50 [5] was 46 µM (inactive) and the GI50 [6] was 37.3 µM (inactive). For the same molecule, the GI50 [7] was 25.8 µM (inactive) and the GI50 [8] was 18.8 µM (inactive).
N#CC(/C(=N/NC(=O)C(=O)NN)C(=O)NC12CC3CC(CC(C3)C1)C2)c1ccccc1 (stereo not given) was tested, and the GI50 [1] was > 100 µM (inactive), the GI50 [2] was > 100 µM (inactive) and the GI50 [3] was > 100 µM (inactive). The GI50 [4] was > 100 µM (inactive), the GI50 [5] was > 100 µM (inactive) and the GI50 [6] was > 100 µM (inactive). The GI50 [7] was > 100 µM (inactive) and the GI50 [8] was > 100 µM (inactive).
In the case of COc1ccc(/C=c2\sc3nnc(CCC(=O)Nc4cccc(C(F)(F)F)c4)n3c2=O)cc1, the GI50 [1] is reported as > 100 µM (inactive), the GI50 [2] is reported as > 100 µM (inactive) and the GI50 [3] is reported as > 87.1 µM (inactive). For the same molecule, the GI50 [4] was > 100 µM (inactive), the GI50 [5] was > 100 µM (inactive) and the GI50 [6] was > 100 µM (inactive). For the same molecule, the GI50 [7] was > 100 µM (inactive) and the GI50 [8] was 50.4 µM (inactive).
In the case of C[C@]12Cc3cn[nH]c3C(=O)C1CC[C@@H]1C2CC[C@@]2(C)C1CC[C@]2(C)O (stereo not given in full), the GI50 [1] is reported as > 100 µM (inactive), the GI50 [2] is reported as > 100 µM (inactive) and the GI50 [3] is reported as > 100 µM (inactive). The GI50 [4] was > 100 µM (inactive), the GI50 [5] was > 100 µM (inactive) and the GI50 [6] was > 100 µM (inactive). For the same molecule, the GI50 [7] was > 100 µM (inactive) and the GI50 [8] was > 100 µM (inactive).
For CC[C@@H](C(=O)[C@@H](C)[C@@H](O)[C@H](C)CCc1ccc(C)c(O)c1C(=O)O)[C@H]1O[C@](CC)([C@H]2CC[C@](O)(CC)[C@H](C)O2)C[C@@H]1C [LASALOCID A SODIUM], the GI50 [1] was 3.61 µM (inactive), the GI50 [2] was 0.946 µM (active) and the GI50 [3] was 1.18 µM (inactive). The GI50 [4] was 3.13 µM (inactive), the GI50 [5] was 0.741 µM (active) and the GI50 [6] was 1.71 µM (inactive). The GI50 [7] was 1.78 µM (inactive) and the GI50 [8] was 3.08 µM (inactive).
